{"source": "patent US20210308133A1", "about": "“METHODS AND COMPOSITIONS FOR INHIBITING MUSCLE WASTING” (THE BOARD OF REGENTS OF THE UNIVERSITY OF TEXAS SYSTEM, priority 2020, published 2021)", "key": {"[1]": {"test_system": "p38α MAPK-mediated myogenic differentiation of C2C12 myoblasts", "experiment": "myogenic differentiation of C2C12 myoblasts (MHC expression)", "format": "cell-based, Murine", "settings": "96 hours differentiation", "source_text": "(§1) Western blotting. All procedures were adhered to our previous publication ^12. The following primary antibodies were used: anti-p300 (1:500, sc584, Santa Cruz), anti-C/EBPβ (1:1000, MA1-827, Thermo Fisher), anti-pT188-C/EBPβ (1:1000, 3084, Cell Signaling Technology), anti-TLR4 (1:500, sc16240, Santa Cruz), anti-p38α MAPK (1:500, sc271120, Santa Cruz), anti-p38s MAPK (1:500, 2339, Cell Signaling Technology), anti-p38 MAPK (1:1000, 9212, Cell Signaling Technology), anti-p-p38 MAPK (1:1000, 4511, Cell Signaling Technology), anti-MAFbx (1:1000, AP2041, ECM Bioscience), anti-UBR2 (1:500, NBP1-45243, Novus Biologicals), anti-LC3 (1:2000, NB100-2220, Novus Biologicals) and anti-MHC (1:1000, MAB4470, R&D Systems). Antibody against acetylated Lys-39 of C/EBPβ (1:2000) was generated as previously described ^12. […] (SEQ ID NO: 1). Data were normalized to α-Tubulin (Development Studies Hybridoma Bank at the University of Iowa, Iowa City, Iowa)."}, "[2]": {"test_system": "LLC tumor-bearing mice", "settings": "as reported previously (ref 8); cited from earlier work"}, "[3]": {"test_system": "p38β MAPK-mediated activation of p300 and C/EBPβ", "experiment": "LCM-induced p300 activation (Ser-12 phosphorylation) and C/EBPβ acetylation in C2C12 myotubes, Western blotting", "format": "cell-based, Murine", "settings": "LCM 2 h, concentration-dependent", "experimental": "Cell cultures. Murine C2C12 myoblasts (American Type Culture Collection, ATCC) and human skeletal myoblasts (GIBCO®) were grown in growth medium (DMEM supplemented with 10% fetal bovine serum) at 37° C. under 5% CO2. Myoblast differentiation was induced at 85% confluence with differentiation medium (DMEM supplemented with 4% heat-inactivated horse serum in) for 96 hrs. Preconditioned medium from 48-hour cultures of Lewis lung carcinoma cells (National Cancer Institute, Frederick, Md.), H1299 human lung carcinoma cells (ATCC) or KPC cells (a gift from Dr. Elizabeth Jaffee of Johns Hopkins University) 14 were collected and centrifuged (1000×g, 5 min). Conditioned medium of non-tumorigenic NL20 cells (human lung epithelial cells, ATCC) was used as control. The supernatant was used to treat myotubes (25% final volume in fresh medium) when indicated and replaced every 24 h. […] All cell lines were tested negative for mycoplasma contamination. Cell culture-based experiments were replicated independently for 3 times.\nWestern blotting. All procedures were adhered to our previous publication ^12. […]"}, "[4]": {"test_system": "UBR2", "experiment": "LCM-induced UBR2 upregulation in C2C12 myotubes, Western blotting", "format": "cell-based, Murine", "settings": "LCM 8 hours, concentration-dependent", "source_text": "as §1"}, "[5]": {"test_system": "p38 MAPK", "experiment": "p38 MAPK activation and catabolic response in primary human myotubes treated with H1299 cell-conditioned medium", "format": "cell-based", "settings": "500 nM", "source_text": "as §1"}, "[6]": {"test_system": "C2C12 myotubes", "experiment": "LCM-induced loss of MHC and myotube mass in C2C12 myotubes", "format": "cell-based, Murine", "settings": "500 nM, LCM 72 hrs", "source_text": "as §1\nFluorescence microscopy and histology study. […] Myotube diameter was measured in MHC-stained myotubes as previously described ^12. Cross-sectional area of H&E-stained muscle sections was quantified by using the ImageJ software (NIH). Approximately 100 myofibers from each of 5 random views were quantified."}, "[7]": {"test_system": "LLC tumor-bearing mice", "experiment": "muscle wasting in LLC tumor-bearing mice", "format": "in vivo", "settings": "0.5 mg/kg/day i.p. from day 7 for 2 weeks", "experimental": "Mice were euthanized on day 21. The tumor was isolated and weighed, and then the net body weight was measured. Muscle samples were collected immediately for analyses of muscle wasting. […] Catabolic markers in TA muscle lysates were analyzed by Western blotting. […] Grip strength was measured on the day of euthanasia. […] H&E-stained TA cross sections were analyzed for the myofiber cross-sectional area. * signifies a statistically significant difference (p<0.05) determined by one-way ANOVA (FIGS. 5A-E) or Chi-square test (FIG. 5F).\nAnimal use. Experimental protocols were pre-approved by the institutional Animal Welfare Committee at the University of Texas Health Science Center at Houston. LLC cells (1×10^6 in […]) were injected subcutaneously into the flanks of 8-week-old male C57B16 mice, TLR4^−/− mice in the C57BL/6 background ^17, or p38β MAPK muscle-specific knockout and p38β MAPK-floxed mice in the C57BL/6 background ^18. […] DMSO was injected accordingly as vehicle control. Plasmid encoding the p300-S12A mutant was transfected into TA muscle by electroporation on day 7 and day 14 following LLC implantation as described previously ^12. The contralateral TA was transfected with an empty vector as control. […] On day 21, mice were euthanized, and muscle samples were harvested for further analyses. For survival study, orthotopic implantation of KPC cells was performed based on the procedures by Zhu et al. ^19. Briefly, a longitudinal incision was made to open the abdominal cavity for pancreas exposure. Then, 2×10^6 KPC cells suspended in 20 μl PBS were injected to the tail of pancreas.\nas §1\nFluorescence microscopy and histology study. C2C12 myotubes were stained with anti-MHC antibody (1:1000, MAB4470, R&D Systems) and anti-mouse Alexa Fluor® Plus 488 secondary antibody (1:200, A32723, ThermoFisher), and examined using a Zeiss Axioskop 40 microscope and a Zeiss Axiocam MRM camera system controlled by Axiovision Release 4.6 imaging software. Acquired images were edited using the Photoshop software. Myotube diameter was measured in MHC-stained myotubes as previously described ^12. Cross-sectional area of H&E-stained muscle sections was quantified by using the ImageJ software (NIH). Approximately 100 myofibers from each of 5 random views were quantified."}, "[8]": {"test_system": "KPC tumor-bearing mice", "experiment": "survival and muscle wasting of mice bearing orthotopic KPC pancreatic tumor", "format": "in vivo", "experimental": "Survival of KPC tumor-bearing mice was recorded and analyzed using the Kaplan-Meier survival curve. […] Forelimb grip strength of the mice was monitored over the course of the survival study. Data were analyzed by 2-way ANOVA. * signifies a statistically significant difference (p<0.05).\nAt the end point, both of DMSO or nilotinib-treated KPC tumor-bearing mice were euthanized. Tumors were isolated and weighted (left panel). Net body weight was measured (right panel).\nAnimal use. Experimental protocols were pre-approved by the institutional Animal Welfare Committee at the University of Texas Health Science Center at Houston. LLC cells (1×10^6 in […]) were injected subcutaneously into the flanks of 8-week-old male C57B16 mice, TLR4^−/− mice in the C57BL/6 background ^17, or p38β MAPK muscle-specific knockout and p38β MAPK-floxed mice in the C57BL/6 background ^18. […] DMSO was injected accordingly as vehicle control. Plasmid encoding the p300-S12A mutant was transfected into TA muscle by electroporation on day 7 and day 14 following LLC implantation as described previously ^12. The contralateral TA was transfected with an empty vector as control. Development of cachexia was monitored by body weight and forelimb grip strength test, and usually took place within 21 days after implantation. On day 21, mice were euthanized, and muscle samples were harvested for further analyses. For survival study, orthotopic implantation of KPC cells was performed based on the procedures by Zhu et al. ^19. Briefly, a longitudinal incision was made to open the abdominal cavity for pancreas exposure. Then, 2×10^6 KPC cells suspended in 20 μl PBS were injected to the tail of pancreas."}, "[9]": {"target": "p38β MAPK (Homo sapiens, UniProt Q15759)", "sequence (Q15759 whole entry)": "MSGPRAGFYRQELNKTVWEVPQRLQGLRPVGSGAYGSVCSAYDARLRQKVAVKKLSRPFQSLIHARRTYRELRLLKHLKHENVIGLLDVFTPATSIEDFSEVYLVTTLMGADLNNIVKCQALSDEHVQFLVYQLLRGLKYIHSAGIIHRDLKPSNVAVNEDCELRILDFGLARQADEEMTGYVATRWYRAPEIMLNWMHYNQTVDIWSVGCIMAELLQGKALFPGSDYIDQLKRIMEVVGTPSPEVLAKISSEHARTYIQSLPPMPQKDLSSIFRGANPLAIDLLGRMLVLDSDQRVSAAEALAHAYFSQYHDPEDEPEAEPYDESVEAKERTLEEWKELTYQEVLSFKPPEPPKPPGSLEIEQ", "settings": "p38β MAPK vs p38α MAPK; cited from earlier work"}, "[10]": {"settings": "humans, 24 hours after first PO administration of 50 mg; cited from earlier work"}}}
{"smiles": "Oc1ccc(-c2nc(-c3ccncc3)c(-c3ccc(F)cc3)[nH]2)cc1", "note": "[SB202190]", "values": [{"measurement": "onset of myoblast differentiation (MHC expression at 24 and 48 hours)", "setting": "[1]; 10 μM", "value": "delayed"}, {"measurement": "LLC tumor-induced muscle wasting in mice", "setting": "[2]", "value": "attenuates"}]}
{"smiles": "Cc1cn(-c2cc(NC(=O)c3ccc(C)c(Nc4nccc(-c5cccnc5)n4)c3)cc(C(F)(F)F)c2)cn1", "note": "[nilotinib]", "values": [{"measurement": "C/EBPβ acetylation on Lys-39", "setting": "[3]", "value": "inhibited"}, {"measurement": "LCM-induced upregulation of UBR2", "setting": "[4]", "value": "inhibited"}, {"measurement": "C/EBPβ phosphorylation on Thr-188", "setting": "[5]; 1 h", "value": "blockade"}, {"measurement": "p38 MAPK activation by H1299 conditioned medium", "setting": "[5]; 1 h", "value": "abrogated"}, {"measurement": "upregulation of E3 ligase UBR2", "setting": "[5]; 8 h", "value": "blockade"}, {"measurement": "LCM-induced loss of myosin heavy chain (MHC)", "setting": "[6]", "value": "resistant"}, {"measurement": "LCM-induced loss of myotube mass (myotube diameters)", "setting": "[6]", "value": "resistant"}, {"measurement": "MHC expression over the course of myoblast differentiation", "setting": "[1]; 500 nM", "value": "did not alter MHC expression"}, {"measurement": "LLC tumor growth", "setting": "[7]", "value": "without affecting tumor growth"}, {"measurement": "activation of p300 (Ser-12 phosphorylation and Lys-39 acetylation of C/EBPβ) in TA muscle", "setting": "[7]", "value": "abolished"}, {"measurement": "increase in autophagosome formation (LC3-II levels)", "setting": "[7]", "value": "blockade"}, {"measurement": "loss of MHC in muscle", "setting": "[7]", "value": "blockade"}, {"measurement": "loss of TA and EDL weight", "setting": "[7]", "value": "attenuated"}, {"measurement": "loss of body weight", "setting": "[7]", "value": "protected against the loss of body weight"}, {"measurement": "loss of muscle strength (grip strength)", "setting": "[7]", "value": "attenuated"}, {"measurement": "myofiber cross-sectional area in TA", "setting": "[7]", "value": "preserved myofiber mass"}, {"measurement": "upregulation of E3 ligases UBR2 and atroginl/MAFbx in TA muscle", "setting": "[7]", "value": "blockade"}, {"measurement": "median survival", "setting": "[8]; 0.5 mg/kg/day i.p. from day 5 until end point", "value": 31, "unit": "days"}, {"measurement": "tumor volume at the end point versus DMSO", "setting": "[8]; 0.5 mg/kg/day i.p., at end point", "value": "without significant difference in tumor volume"}, {"measurement": "loss of muscle function measured as grip strength", "setting": "[8]; 0.5 mg/kg/day i.p., over the course of the survival study", "value": "attenuated"}, {"measurement": "binding affinity for p38β MAPK higher than for p38α MAPK", "setting": "[9]", "value": 3, "unit": "fold"}, {"measurement": "serum concentration", "setting": "[10]", "value": "approximately 400 ng/ml"}]}
